These results are taken from US20250161238A1, “NMDAR Antagonists Prevent Ageing and Aging-Associated Conditions and Diseases Through Increasing 20S Proteasome Activity” (priority 2022, published 2025).

Where a name gives a salt, the structure may show the parent alone. Read-outs that look alike come from different tables or passages of the source. Peptide text beside a SMILES is read from it. * marks the point of attachment. Cbz = O=C(OCc1ccccc1)*

Test [1] addresses T1, proteasome (Homo sapiens, UniProt P28072+P28074+Q99436).
T1 sequence (P28074 60-263): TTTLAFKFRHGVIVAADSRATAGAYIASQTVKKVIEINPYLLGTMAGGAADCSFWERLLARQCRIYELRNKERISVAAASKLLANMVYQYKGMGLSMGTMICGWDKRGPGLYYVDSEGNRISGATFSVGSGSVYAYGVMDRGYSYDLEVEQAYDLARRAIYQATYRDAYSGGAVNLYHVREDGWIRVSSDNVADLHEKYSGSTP
T1 sequence (Q99436 44-277): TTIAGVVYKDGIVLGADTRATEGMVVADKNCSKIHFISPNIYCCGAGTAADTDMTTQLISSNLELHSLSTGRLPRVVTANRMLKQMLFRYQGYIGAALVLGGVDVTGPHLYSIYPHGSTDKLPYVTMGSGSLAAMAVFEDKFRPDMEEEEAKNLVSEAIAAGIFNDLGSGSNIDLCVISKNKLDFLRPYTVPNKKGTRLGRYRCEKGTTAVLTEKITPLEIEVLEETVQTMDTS
T1 sequence (P28072 1-239): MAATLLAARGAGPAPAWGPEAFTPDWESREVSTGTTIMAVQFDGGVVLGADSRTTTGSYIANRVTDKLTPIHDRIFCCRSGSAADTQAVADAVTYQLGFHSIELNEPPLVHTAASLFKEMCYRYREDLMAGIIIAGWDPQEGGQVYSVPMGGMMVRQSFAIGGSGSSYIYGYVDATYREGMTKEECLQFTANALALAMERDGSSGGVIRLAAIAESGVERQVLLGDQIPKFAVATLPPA
The test can be described thus: In-Cell Fluorogenic Proteasome Assay, HepG2. It counts as cell-based. Also on record: endogenous in cells; host or cells: HepG2 (A9), T98G (A10), digitonin/Tween-permeabilised whole cells. The settings on record: for trypsin, chemotrypsin and caspase-like proteasome activities: whole HepG2 cell. Here is the method:
(§1) For a 96-well plate format, 8×10^3 cells per well were seeded. 24 hours later medium was changed with NMDAR blocker containing medium. Two hours later 100 μl of 2× flourescence cell buffer: (1 ml 1M tris hcl ph: 7.5, 500 μl 1M KCL, 200 μl […], 200 μl 0.1M MgCL2, 50 μl % 0.2 tween 20, 75 μl digitonin 20 mg/ml in DMSO ChemCruz cat no: sc-280675, 10 μl flourescence substrates including Suc-LLVY-AMC, Z-LLE-AMC, and Ac-RLR-AMC Ac-RLR-AMC, 8.1 ml H2O). After incubation at room temperature for a 5 minutes the flourescence of each sample were measured in a flourescence spectrometer (Biotek instrument-Synergy HT).

A further test relates to p21-GFP fusion protein. In words: p21-GFP fusion protein amount in cells. The class given is cell-based, human.
In another test the test system is Ub-YFP. The test can be described thus: Ub-YFP degredation in Hep3B cells. It counts as cell-based, human. Here is the method:
This finding was supported by the following experiments; First, a model was developed to find inhibitor or inhibitors for the ubiquitin dependent degredation in the Hep3B cell line. For this purpose Hep3B cell expressing Ub-YFP genome were prepared. Ub-YFP is a system which was used to detect the ubiquitin dependent proteasome activity (26S). It is also known that Ub-YFP is not affected by the ubiquitin-independent protesome system. In further experiments, we tested molecules which are involved in different parts of the ubiquitination processes including PYR41 (Ubiquitin-activating enzyme (E1) inhibitor), NCC697923 (UBE2N E2 ubiquitin-conjugating enzyme inhibitor), SMER3 (ubiquitin ligase E3 inhibitor), SZL-P1-411 (Skp2 E3 ligase inhibitor), SKPIN C1 (Skp2 E3 ligase inhibitor), P005091 (USP7 inhibitor), Vialin A (USP4 and USP5 inhibitor), Spautin A (USP10 and USP13 inhibitor), ML 323 (USP1-UAF1 inhibitor), IU1 (USP14 inhibitor), and Mg132 (protesome inhibitor) for the inhibition of Ub-YFP degredation. […] MG132 was used as the inhibitor of the protesome activity (FIG. 12A). In the next experiment YFP protein amount was investigated in the presence of ketamin, Pyr41, and ketamin and Pyr41 together by western blot in Hep3B cell.
The Ub-R-YFP open-reading frame was obtained from Ub-R-YFP was a gift from Nico Dantuma (Addgene plasmid #11948). Ub-R-YFP sequence was obtained from the original vector by cutting the plasmid with NheI and NotI enzymes (Thermo Scientific), blunt ended and was cloned into pBSK-clo2D which is cut by EcoRV restriction enzyme (SibEnzyme, E059). Ub-R-YFP was obtained from the pBSK-clo2D vector by cutting with BamHI. pLV-EF1a-IRES-Puro (85132-Addgene) vector was cut by BamHI restriction enzyme and dephospharylated and ligated with Ub-R-YFP. After the orientation construct was determined, pLV-EF1a-IRES-Puro-Ub-R-YFP was reproduced in large volumes using DH5a E. Coli.
Hek293T cells were transfected with the pLV-EF1a-IRES-Puro-Ub-R-YFP and helper vectors psPAX2 and pMD2.G using Calcium Phosphate Mammalian Transfection Kit (631312-Takara bio). After 48 h supernatants containing Ub-R-YFP lentivirus were collected and target cells were infected under the presence of […] polybrene. After 24 hours, the media of the cells were replaced with media containing […] puromycin for 6 days. Then living cells were combined in a pool. Infected clones were maintained in the presence of 250 ng/ml puromycin.

In the next test the test system is mice with GD symptoms. The conditions noted are these: A/J, C3H/HeJ, DBA/2J, C57BL6/JolaHsd, CBE 25 mg/kg day, cited from earlier work.
Test [2] addresses T1, proteasome. In words: In-Cell Fluorogenic Proteasome Assay, T98G. The class given is cell-based. Set-up: endogenous in cells; host or cells: T98G (A10), digitonin/Tween-permeabilised whole cells. The conditions noted are these: whole T98G cell. How it is done: as §1

As to `Cc1cc(C(=O)CN2CCCC2)c(C)n1-c1ccc(F)cc1` [IU1], at proteasome [1], the “trypsin, chemotrypsin and caspase-like proteasome activities” value is listed as “increases”.

With `OO` [H2O2], the “GFP signal of p21-GFP” value with p21-GFP fusion protein is on record as “increased the GFP signal dramatically”.

Take `CN1C(=O)[C@]23CC4=CC=C[C@H](O)[C@H]4N2C(=O)[C@@]1(CO)SS3` [Gliotoxin]: on proteasome [1] (5 uM, compared to control), the “chemotrypsin activity of proteasome at low dose of Gliotoxin” value is “not statistically changed”. On proteasome [1] (25 uM, in the presence of NMDR blockers), the “chemotrypsin activity of proteasome at high dose of gliotoxin” value is “inhibited”.

For the compound `CC(C)C[C@@H](C=O)NC(=O)[C@H](CC(C)C)NC(=O)[C@H](CC(C)C)NC(=O)OCc1ccccc1` [Mg132] (Cbz-Leu-Leu-Leu-aldehyde), on proteasome [1] (whole cell, HepG2, T98G and Hep3B), the “trypsin activity of proteasome” value was “did not inhibit”. Besides, the “chemotrypsin activity of proteasome” value on proteasome [1] (whole cell, substance alone) is given as “inhibits”.

Take `CCOC(=O)c1ccc(N2NC(=O)/C(=C/c3ccc([N+](=O)[O-])o3)C2=O)cc1` [PYR41]: the Ub-YFP degredation entry in the test with Ub-YFP (Hep3B expressing Ub-YFP) was “inhibits”. For the same compound, the YFP protein amount result with Ub-YFP (Hep3B, western blot) was “increase”. The “p21-GFP fusion protein / GFP amount” value in the test on p21-GFP fusion protein is listed as “increase”.

Regarding `C[C@]12N[C@H](Cc3ccccc31)c1ccccc12` [MK801, (5S,10R)-(+)-5-Methyl-10,11-dihydro-5H dibenzo [a,d]cyclobepten-5,10-imine maleate], the “life span of mice with Gaucher disease symptoms” value is recorded as “dramatically extended” in the test with mice with GD symptoms and “increase” in the test on mice with GD symptoms (listed as MK-801). The “trypsin, chemotrypsin and caspase-like proteasome activities” value at proteasome [2] and on proteasome [1] was “increased” throughout.
